The supplement of paper PMC9912026

Tested on: A375_aEGFR2
Assay: pERK immunofluorescence normalised to no-drug reference (=1); higher = more ERK phosphorylation (less pathway inhibition)
Conditions: drug treatment time 24 h, EGF time 8 h
Protocol: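 A375 CRISPRa-EGFR (A375_aEGFR2) or HT29 cells were treated with two-drug dose combinations (vemurafenib, LY3009120, cobimetinib) for 24 h, then stimulated with EGF (100 ng/mL) or mock medium for 8 h. pERK (T202/Y204) was measured by immunofluorescence as the cytosolic population average, normalised to an untreated no-drug reference of the block (=1). Averages of 2 technical replicates. A375 in 5% FBS, HT29 in 10% FBS.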

CCCS(=O)(=O)Nc1ccc(F)c(C(=O)c2c[nH]c3ncc(-c4ccc(Cl)cc4)cc23)c1F [Vemurafenib] + O=C(c1ccc(F)c(F)c1Nc1ccc(I)cc1F)N1CC(O)([C@@H]2CCCCN2)C1 [Cobimetinib]
pERK immunofluorescence normalised
Conditions	EGF 0 ng/mL	EGF 100 ng/mL
drug A concentration 0 µM, drug B concentration 31.62 pM	1.03	1.05
drug A concentration 0 µM, drug B concentration 0.0001 µM	1	1.07
drug A concentration 0 µM, drug B concentration 0.000316228 µM	1	1.02
drug A concentration 0 µM, drug B concentration 0.001 µM	0.917	1.01
drug A concentration 0 µM, drug B concentration 0.00316228 µM	0.732	0.906
drug A concentration 0 µM, drug B concentration 0.01 µM	0.399	0.695
drug A concentration 0 µM, drug B concentration 0.0316228 µM	0.188	0.526
drug A concentration 0 µM, drug B concentration 0.1 µM	0.147	0.468
drug A concentration 0 µM, drug B concentration 0.316228 µM	0.141	0.347
drug A concentration 0 µM, drug B concentration 1 µM	0.137	0.196
drug A concentration 0.000316228 µM, drug B concentration 0 µM	1.01	1.04
drug A concentration 0.000316228 µM, drug B concentration 31.62 pM	1.01	1.03
drug A concentration 0.000316228 µM, drug B concentration 0.0001 µM	1.01	1.02
drug A concentration 0.000316228 µM, drug B concentration 0.000316228 µM	0.984	1.02
drug A concentration 0.000316228 µM, drug B concentration 0.001 µM	0.915	0.936
drug A concentration 0.000316228 µM, drug B concentration 0.00316228 µM	0.687	0.804
drug A concentration 0.000316228 µM, drug B concentration 0.01 µM	0.383	0.605
drug A concentration 0.000316228 µM, drug B concentration 0.0316228 µM	0.175	0.498
drug A concentration 0.000316228 µM, drug B concentration 0.1 µM	0.152	0.425
drug A concentration 0.000316228 µM, drug B concentration 0.316228 µM	0.138	0.289
drug A concentration 0.000316228 µM, drug B concentration 1 µM	0.14	0.179
drug A concentration 0.001 µM, drug B concentration 0 µM	1.01	1.05
drug A concentration 0.001 µM, drug B concentration 31.62 pM	1.02	1.04
drug A concentration 0.001 µM, drug B concentration 0.0001 µM	1.01	1.02
drug A concentration 0.001 µM, drug B concentration 0.000316228 µM	0.958	1.05
drug A concentration 0.001 µM, drug B concentration 0.001 µM	0.857	0.99
drug A concentration 0.001 µM, drug B concentration 0.00316228 µM	0.631	0.816
drug A concentration 0.001 µM, drug B concentration 0.01 µM	0.328	0.621
drug A concentration 0.001 µM, drug B concentration 0.0316228 µM	0.172	0.518
drug A concentration 0.001 µM, drug B concentration 0.1 µM	0.142	0.443
drug A concentration 0.001 µM, drug B concentration 0.316228 µM	0.139	0.3
drug A concentration 0.001 µM, drug B concentration 1 µM	0.137	0.172
drug A concentration 0.00316228 µM, drug B concentration 0 µM	1.02	1.06
drug A concentration 0.00316228 µM, drug B concentration 31.62 pM	0.976	1.05
drug A concentration 0.00316228 µM, drug B concentration 0.0001 µM	0.987	1.06
drug A concentration 0.00316228 µM, drug B concentration 0.000316228 µM	0.943	0.991
drug A concentration 0.00316228 µM, drug B concentration 0.001 µM	0.874	0.935
drug A concentration 0.00316228 µM, drug B concentration 0.00316228 µM	0.623	0.81
drug A concentration 0.00316228 µM, drug B concentration 0.01 µM	0.306	0.625
drug A concentration 0.00316228 µM, drug B concentration 0.0316228 µM	0.164	0.525
drug A concentration 0.00316228 µM, drug B concentration 0.1 µM	0.149	0.435
drug A concentration 0.00316228 µM, drug B concentration 0.316228 µM	0.141	0.285
drug A concentration 0.00316228 µM, drug B concentration 1 µM	0.138	0.166
drug A concentration 0.01 µM, drug B concentration 0 µM	0.986	1.03
drug A concentration 0.01 µM, drug B concentration 31.62 pM	0.927	1.02
drug A concentration 0.01 µM, drug B concentration 0.0001 µM	0.905	0.991
drug A concentration 0.01 µM, drug B concentration 0.000316228 µM	0.875	1.01
drug A concentration 0.01 µM, drug B concentration 0.001 µM	0.814	0.909
drug A concentration 0.01 µM, drug B concentration 0.00316228 µM	0.534	0.765
drug A concentration 0.01 µM, drug B concentration 0.01 µM	0.292	0.613
drug A concentration 0.01 µM, drug B concentration 0.0316228 µM	0.198	0.503
drug A concentration 0.01 µM, drug B concentration 0.1 µM	0.144	0.417
drug A concentration 0.01 µM, drug B concentration 0.316228 µM	0.139	0.29
drug A concentration 0.01 µM, drug B concentration 1 µM	0.138	0.165
drug A concentration 0.0316228 µM, drug B concentration 0 µM	0.881	1
drug A concentration 0.0316228 µM, drug B concentration 31.62 pM	0.842	0.991
drug A concentration 0.0316228 µM, drug B concentration 0.0001 µM	0.795	0.944
drug A concentration 0.0316228 µM, drug B concentration 0.000316228 µM	0.753	0.892
drug A concentration 0.0316228 µM, drug B concentration 0.001 µM	0.666	0.834
drug A concentration 0.0316228 µM, drug B concentration 0.00316228 µM	0.441	0.692
drug A concentration 0.0316228 µM, drug B concentration 0.01 µM	0.228	0.567
drug A concentration 0.0316228 µM, drug B concentration 0.0316228 µM	0.161	0.495
drug A concentration 0.0316228 µM, drug B concentration 0.1 µM	0.145	0.414
drug A concentration 0.0316228 µM, drug B concentration 0.316228 µM	0.14	0.282
drug A concentration 0.0316228 µM, drug B concentration 1 µM	0.138	0.164
drug A concentration 0.1 µM, drug B concentration 0 µM	0.659	0.851
drug A concentration 0.1 µM, drug B concentration 31.62 pM	0.542	0.79
drug A concentration 0.1 µM, drug B concentration 0.0001 µM	0.539	0.787
drug A concentration 0.1 µM, drug B concentration 0.000316228 µM	0.489	0.774
drug A concentration 0.1 µM, drug B concentration 0.001 µM	0.404	0.672
drug A concentration 0.1 µM, drug B concentration 0.00316228 µM	0.285	0.615
drug A concentration 0.1 µM, drug B concentration 0.01 µM	0.186	0.553
drug A concentration 0.1 µM, drug B concentration 0.0316228 µM	0.149	0.525
drug A concentration 0.1 µM, drug B concentration 0.1 µM	0.146	0.407
drug A concentration 0.1 µM, drug B concentration 0.316228 µM	0.14	0.283
drug A concentration 0.1 µM, drug B concentration 1 µM	0.14	0.161
drug A concentration 0.316228 µM, drug B concentration 0 µM	0.362	0.697
drug A concentration 0.316228 µM, drug B concentration 31.62 pM	0.311	0.647
drug A concentration 0.316228 µM, drug B concentration 0.0001 µM	0.28	0.635
drug A concentration 0.316228 µM, drug B concentration 0.000316228 µM	0.264	0.643
drug A concentration 0.316228 µM, drug B concentration 0.001 µM	0.235	0.6
drug A concentration 0.316228 µM, drug B concentration 0.00316228 µM	0.187	0.584
drug A concentration 0.316228 µM, drug B concentration 0.01 µM	0.161	0.557
drug A concentration 0.316228 µM, drug B concentration 0.0316228 µM	0.146	0.502
drug A concentration 0.316228 µM, drug B concentration 0.1 µM	0.142	0.388
drug A concentration 0.316228 µM, drug B concentration 0.316228 µM	0.139	0.27
drug A concentration 0.316228 µM, drug B concentration 1 µM	0.139	0.157
drug A concentration 1 µM, drug B concentration 0 µM	0.211	0.639
drug A concentration 1 µM, drug B concentration 31.62 pM	0.195	0.623
drug A concentration 1 µM, drug B concentration 0.0001 µM	0.192	0.614
drug A concentration 1 µM, drug B concentration 0.000316228 µM	0.189	0.614
drug A concentration 1 µM, drug B concentration 0.001 µM	0.175	0.603
drug A concentration 1 µM, drug B concentration 0.00316228 µM	0.169	0.615
drug A concentration 1 µM, drug B concentration 0.01 µM	0.147	0.571
drug A concentration 1 µM, drug B concentration 0.0316228 µM	0.142	0.494
drug A concentration 1 µM, drug B concentration 0.1 µM	0.141	0.382
drug A concentration 1 µM, drug B concentration 0.316228 µM	0.138	0.245
drug A concentration 1 µM, drug B concentration 1 µM	0.141	0.153
drug A concentration 3.16228 µM, drug B concentration 0 µM	0.171	0.647
drug A concentration 3.16228 µM, drug B concentration 31.62 pM	0.161	0.666
drug A concentration 3.16228 µM, drug B concentration 0.0001 µM	0.172	0.648
drug A concentration 3.16228 µM, drug B concentration 0.000316228 µM	0.158	0.647
drug A concentration 3.16228 µM, drug B concentration 0.001 µM	0.152	0.635
drug A concentration 3.16228 µM, drug B concentration 0.00316228 µM	0.147	0.614
drug A concentration 3.16228 µM, drug B concentration 0.01 µM	0.146	0.532
drug A concentration 3.16228 µM, drug B concentration 0.0316228 µM	0.14	0.464
drug A concentration 3.16228 µM, drug B concentration 0.1 µM	0.139	0.305
drug A concentration 3.16228 µM, drug B concentration 0.316228 µM	0.139	0.179
drug A concentration 3.16228 µM, drug B concentration 1 µM	0.14	0.138
drug A concentration 10 µM, drug B concentration 0 µM	0.154	0.664
drug A concentration 10 µM, drug B concentration 31.62 pM	0.152	0.616
drug A concentration 10 µM, drug B concentration 0.0001 µM	0.148	0.612
drug A concentration 10 µM, drug B concentration 0.000316228 µM	0.149	0.579
drug A concentration 10 µM, drug B concentration 0.001 µM	0.147	0.584
drug A concentration 10 µM, drug B concentration 0.00316228 µM	0.149	0.546
drug A concentration 10 µM, drug B concentration 0.01 µM	0.147	0.476
drug A concentration 10 µM, drug B concentration 0.0316228 µM	0.141	0.36
drug A concentration 10 µM, drug B concentration 0.1 µM	0.14	0.209
drug A concentration 10 µM, drug B concentration 0.316228 µM	0.141	0.146
drug A concentration 10 µM, drug B concentration 1 µM	0.146	0.138
